Reference: patent US20230287021A1, “COMPOUNDS, COMPOSITIONS AND METHODS FOR STABILIZING TRANSTHYRETIN AND INHIBITING TRANSTHYRETIN MISFOLDING” (Protego Biopharma, Inc., priority 2020, published 2023)
Where a name gives a salt, the structure may show the parent alone.

Columns and labels:
[1] = In vitro rat plasma stability assay, formation of tafamidis; type: in vitro ADME; conditions: 37° C., 2 µM test compound
Method in brief: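 Compound at 2 µM incubated in rat plasma at 37 °C, sampled at 0, 10, 30, 60, 120 min or 0, 60, 120, 180, 240 min. Protein precipitated, supernatant analyzed by LC-MS/MS, and percentage formation of tafamidis calculated per time point.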

[2] = In vitro rat liver S9 stability assay, formation of tafamidis; type: in vitro ADME; conditions: rat liver S9, 37° C., 1 µM test compound
Protocol: The test compound was added to liver S9 and incubated at 37° C. in a water bath at a concentration of 1 µM. At each time point (0, 5, 10, 20, 30 and 60 min), stop solution (tolbutamide plus labetalol) was added to precipitate protein and mixed thoroughly. After centrifugation, an aliquot of supernatant was analyzed by LC-MS/MS. The percentage of formation of active agent was calculated at each time point.

[3] = In vivo rat PK: tafamidis in plasma, CSF and brain; set-up: species or system Male Sprague-Dawley (SD) rats; conditions: for Tafamidis CSF/Plasma Ratio (iv): iv administration of test compound; for Tafamidis CSF/Plasma Ratio over 24 hrs (po): po administration of test compound
Source text: For a compound provided herein to be an effective TTR stabilizer drug to halt and/or prevent the ocular and cerebral TTR amyloid deposition TTR amyloidosis, it has to be able to penetrate into the brain and CSF (surrogate for eye penetration) and deliver a sufficient amount of TTR stabilizer to stop TTR dissociation. A pharmacokinetic study in rat was used to evaluate the compounds. Male Sprague-Dawley (SD) rats (200-220 g weight) were acclimated for at least 2 to 3 days before being placed on study. All animals had access to certified rodent diet and water at libitum. Appropriate amount of the test compound was accurately weighed and mixed with appropriate volume of vehicle (such as DMSO/sterile water for iv dosing or 0.5% methylcellulose homogenous suspension or solution for oral administration or as a solution in a mixture NMP/PEG400/solutol/water) to administer a dose of 2, 5 or 10 mg/kg. For IV dosing the test compound was administered via tail vein or indwelling cannula. For oral dosing, the test compound was administered by oral gavage. Blood and CSF samples were collected at selected timepoints. Blood collection was performed from saphenous vein or tail vein of each animal into polypropylene tubes at each timepoint. All blood samples were transferred into EDTA-K2 tubes and centrifuged for 15 minutes at 4° C. for plasma collection. Plasma samples were kept at -80° C. until LC/MSMS analysis. CSF was collected from cisterna magna at each timepoint and quick frozen over dry ice and kept at -80° C. until LC/MSMS analysis. Brains were harvested immediately after the terminal bleeding (~ 24 hrs post dosing). The blood of the brain was perfused with normal saline. The brain was quickly picked and placed into centrifuge tube. The weight of brain samples was recorded. 4-Fold homogenization solution (MeOH/15 mM PBS (1:2)) was added into the tube according to the weighed samples. The brain was homogenized using a Polytron (3 strokes or more until homogenous, each 30 seconds) on wet ice. The samples were quick frozen over dry ice and kept at -80° C. until LC/MSMS analysis. Using a LC-MSMS method for the quantitative determination of test compound in biological matrixes, amount of test compound and active agent were measured in plasma and CSF at selected timepoints post-dosing and in brain at 24 hrs post dosing. Plasma concentration versus time data was analyzed by non-compartmental approaches using the Phoenix WinNonlin 6.3 software program. As reference, an oral dose of 2 mg/kg of tafamidis gave a CSF to plasma ratio over 24 hrs around 0.01 and a brain to plasma ratio at 24 hrs around 0.02.

Structure (SMILES)	Formation of tafamidis at 120 min [1]	Formation of tafamidis at 60 min [2]	Tafamidis CSF/Plasma Ratio (iv) [3]	Tafamidis CSF/Plasma Ratio over 24 hrs (po) [3]
CCN(CC)CCOC(=O)c1ccc2nc(-c3cc(Cl)cc(Cl)c3)oc2c1 [Compound 35, 2-(diethylamino)ethyl 2-(3,5-dichlorophenyl)benzo[d]oxazole-6-carboxylate hydrochloride]	C (C is ≥50 to <75%)	B (B is ≥25 to <50%)	B (B is ≥0.015 to <0.02)	–
O=C(OCCN1CCCC1)c1ccc2nc(-c3cc(Cl)cc(Cl)c3)oc2c1 [Compound 37, 2-(pyrrolidin-1-yl)ethyl 2-(3,5-dichlorophenyl)benzo[d]oxazole-6-carboxylate]	B (B is ≥25 to <50%)	B (B is ≥25 to <50%)	A (A is <0.015)	–
CCN(CC)CCCOC(=O)c1ccc2nc(-c3cc(Cl)cc(Cl)c3)oc2c1 [Compound 38, 3-(diethylamino)propyl 2-(3,5-dichlorophenyl)benzo[d] oxazole-6-carboxylate]	B (B is ≥25 to <50%)	A (A is <25%)	B (B is ≥0.015 to <0.02)	B (B is ≥0.015 to <0.02)
O=C(OCCCN1CCC1)c1ccc2nc(-c3cc(Cl)cc(Cl)c3)oc2c1 [Compound 39, 3-(azetidin-1-yl)propyl 2-(3,5-dichlorophenyl)benzo[d] oxazole-6-carboxylate]	A (A is <25%)	A (A is <25%)	B (B is ≥0.015 to <0.02)	–
O=C(OCCCN1CCCC1)c1ccc2nc(-c3cc(Cl)cc(Cl)c3)oc2c1 [Compound 40, 3-(pyrrolidin-1-yl)propyl 2-(3,5-dichlorophenyl)benzo[d] oxazole-6-carboxylate]	B (B is ≥25 to <50%)	A (A is <25%)	B (B is ≥0.015 to <0.02)	–
O=C(OCCCN1CCCCC1)c1ccc2nc(-c3cc(Cl)cc(Cl)c3)oc2c1 [Compound 41, 3-(piperidin-1-yl)propyl 2-(3,5-dichlorophenyl)benzo[d] oxazole-6-carboxylate]	C (C is ≥50 to <75%)	A (A is <25%)	C (C is ≥0.02)	A (A is < 0.015)
CN1C[C@H](OC(=O)c2ccc3nc(-c4cc(Cl)cc(Cl)c4)oc3c2)[C@@H](O)C1 [Compound 57, (3S,4S)-4-hydroxy-1-methylpyrrolidin-3-yl 2-(3,5-dichlorophenyl)benzo[d] oxazole-6-carboxylate]	B (B is ≥25 to <50%)	B (B is ≥25 to <50%)	B (B is ≥0.015 to <0.02)	–
CN1CC[C@H](OC(=O)c2ccc3nc(-c4cc(Cl)cc(Cl)c4)oc3c2)C1 [Compound 58, (S)-1-methylpyrrolidin-3-yl 2-(3,5-dichlorophenyl)benzo[d] oxazole-6-carboxylate hydrochloride]	D (D is ≥75%)	A (A is <25%)	–	A (A is < 0.015)
CN1CC[C@@H](OC(=O)c2ccc3nc(-c4cc(Cl)cc(Cl)c4)oc3c2)C1 [Compound 59, (R)-1-methylpyrrolidin-3-yl 2-(3,5-dichlorophenyl)benzo[d] oxazole-6-carboxylate]	C (C is ≥50 to <75%)	A (A is <25%)	–	B (B is ≥0.015 to <0.02)
CN1CCC(COC(=O)c2ccc3nc(-c4cc(Cl)cc(Cl)c4)oc3c2)C1 (centres unmarked) [Compound 60, (1-methylpyrrolidin-3-yl)methyl 2-(3,5-dichlorophenyl)benzo [d] oxazole-6-carboxylate]	A (A is <25%)	A (A is <25%)	B (B is ≥0.015 to <0.02)	–
CN1CCCC(OC(=O)c2ccc3nc(-c4cc(Cl)cc(Cl)c4)oc3c2)C1 (centres unmarked) [Compound 62]	B (B is ≥25 to <50%)	B (B is ≥25 to <50%)	–	A (A is < 0.015)
O=C(NCC(F)F)c1ccc2nc(-c3cc(Cl)cc(Cl)c3)oc2c1 [Compound 66, 2-(3,5-dichlorophenyl)-N-(2,2-difluoroethyl)benzo[d]oxazole-6-carboxamide]	A (A is <25%)	A (A is <25%)	–	C (C is ≥0.02)
CCN1CCC(OC(=O)c2ccc3nc(-c4cc(Cl)cc(Cl)c4)oc3c2)C1 (centres unmarked) [Compound 74]	C (C is ≥50 to <75%)	A (A is <25%)	–	C (C is ≥0.02)
CC(C)N1CCC(OC(=O)c2ccc3nc(-c4cc(Cl)cc(Cl)c4)oc3c2)C1 (centres unmarked) [Compound 75]	B (B is ≥25 to <50%)	A (A is <25%)	–	B (B is ≥0.015 to <0.02)
O=C(OC1CCN(Cc2ccccc2)C1)c1ccc2nc(-c3cc(Cl)cc(Cl)c3)oc2c1 (centres unmarked) [Compound 76]	C (C is ≥50 to <75%)	A (A is <25%)	–	B (B is ≥0.015 to <0.02)
O=C(OCCN1CCS(=O)(=O)CC1)c1ccc2nc(-c3cc(Cl)cc(Cl)c3)oc2c1 [Compound 79]	B (B is ≥25 to <50%)	C (C is ≥50 to <75%)	–	A (A is < 0.015)
O=C(OCCN1CCNCC1)c1ccc2nc(-c3cc(Cl)cc(Cl)c3)oc2c1 [Compound 82]	A (A is <25%)	A (A is <25%)	–	A (A is < 0.015)
O=C(OCC1CCOC1)c1ccc2nc(-c3cc(Cl)cc(Cl)c3)oc2c1 (centres unmarked) [Compound 85]	C (C is ≥50 to <75%)	C (C is ≥50 to <75%)	–	B (B is ≥0.015 to <0.02)
CNC(=O)c1ccc2nc(-c3cc(Cl)cc(Cl)c3)oc2c1 [Compound 87]	A (A is <25%)	A (A is <25%)	–	A (A is < 0.015)
O=C(NCCF)c1ccc2nc(-c3cc(Cl)cc(Cl)c3)oc2c1 [Compound 88]	A (A is <25%)	A (A is <25%)	–	A (A is < 0.015)
Cn1ccc(COC(=O)c2ccc3nc(-c4cc(Cl)cc(Cl)c4)oc3c2)n1 [Compound 90]	A (A is <25%)	D (D is ≥75%)	–	A (A is < 0.015)
O=C(OCc1ncccn1)c1ccc2nc(-c3cc(Cl)cc(Cl)c3)oc2c1 [Compound 102]	B (B is ≥25 to <50%)	C (C is ≥50 to <75%)	–	A (A is < 0.015)
O=C(OCCCn1ccnc1)c1ccc2nc(-c3cc(Cl)cc(Cl)c3)oc2c1 [Compound 117]	B (B is ≥25 to <50%)	D (D is ≥75%)	–	B (B is ≥0.015 to <0.02)
CS(=O)(=O)N1CCC(OC(=O)c2ccc3nc(-c4cc(Cl)cc(Cl)c4)oc3c2)C1 (centres unmarked) [Compound 139]	A (A is <25%)	B (B is ≥25 to <50%)	–	A (A is < 0.015)
O=C(OC1CCN(CC(F)F)C1)c1ccc2nc(-c3cc(Cl)cc(Cl)c3)oc2c1 (centres unmarked) [Compound 144]	B (B is ≥25 to <50%)	C (C is ≥50 to <75%)	–	B (B is ≥0.015 to <0.02)
O=C(c1ccc2nc(-c3cc(Cl)cc(Cl)c3)oc2c1)N1CCNCC1 [Compound 145]	A (A is <25%)	A (A is <25%)	–	B (B is ≥0.015 to <0.02)
